In patent US10246733B2, “Assay and method for quantitating carbonic anhydrase activity and assessing red blood hemolysis” (CASE WESTERN RESERVE UNIVERSITY, priority 2015, dated 2019):

Tests used:
[1] = test system: intact RBCs and hemolysate released CA; experiment: Stopped-flow out-of-equilibrium CA assay on mixtures of intact and hemolyzed mouse RBCs; format: biochemical
Excerpt: (§1) [drawing 3] causing pH to rise exponentially.
(§2) Adult C57/BL6 mice (8 to 16 weeks old) were sacrificed by cervical dislocation and blood was immediately collected by cardiac puncture using a 1-mL syringe (Becton, Dickinson and Co., Franklin Lakes, N.J., USA) with a 23 gauge PrecisionGlide needle (Becton, Dickinson and Co.). Prior to blood collection the syringe and needle were rinsed with 0.9% sodium heparin (H4784, Sigma-Aldrich). The blood was transferred to a 1.5-mL microcentrifuge tube, centrifuged in a Beckman Microfuge 16 Microcentrifuge (Beckman, Brea, Calif.) at 600×g for 10 min and the resulting supernatant and buffy coat were removed. To remove any residual extracellular Hb, the pelleted red blood cells (RBCs) were resuspended—in solution A to a 10% hematocrit (Hct)—and centrifuged at 600×g for 5 minutes. This process was repeated 4×. After the final wash the RBCs were resuspended in solution A to a final Hct of ˜20% to ˜30%.
A solution of isolated Hb was obtained by osmotic lysis of 20 μL of freshly prepared mouse RBCs (see above) in pure H2O (1:8 dilution), followed by centrifugation at 15000×g for 5 minutes in a Beckman Microfuge 16 Microcentrifuge, at RT room temperature. This centrifugation step separated the cellular debris from the Hb containing supernatant. The supernatant (cleared of cellular debris) then was removed and transferred to a clean 1.5 mL Eppendorf tube for a The Hb concentration of the supernatant was spectroscopic determination of [Hb] using the visible absorbance spectroscopy as described above.
Simulated degrees of hemolysis (0-up to 100%) were achieved by mixing different proportions of freshly prepared, ostensibly “intact” RBCs and a lysate (representing 100% lysis), while maintaining the total Hb concentration at 5 μM (Table 2). For example, the mixture simulating ostensibly 0% hemolysis contained 5 μM Hb from RBCs. The mixture simulating ostensibly 50% hemolysis contained 2.5 μM Hb from RBCs and 2.5 μM Hb from the lysate supernatant (added to the RBC mixture in a dilution of ˜1:400 to ˜1:4000, depending on the [Hb]). […]

hemolysate released CA = experiment: Stopped-flow out-of-equilibrium CA assay on mouse hemolysate; format: biochemical
Excerpt: as §1
as §2, with “After the final wash the RBCs were resuspended in solution A to a final Hct of ˜20% to ˜30%.” left out
A solution of isolated Hb was obtained by osmotic lysis of 20 μL of freshly prepared mouse RBCs (see above) in pure H2O (1:8 dilution), followed by centrifugation at 15000×g for 5 minutes in a Beckman Microfuge 16 Microcentrifuge, at RT room temperature. […] The supernatant (cleared of cellular debris) then was removed and transferred to a clean 1.5 mL Eppendorf tube for a The Hb concentration of the supernatant was spectroscopic determination of [Hb] using the visible absorbance spectroscopy as described above. […]

[2] = cited from earlier work
[3] = Calibration of pH indicator dye (pK from fluorescence-excitation ratio titration curve); format: physicochemical; conditions: 10° C., five sets of experiments, ± SD
Method: We calibrated the pH indicator dye pyranine at 10° C. by mixing in the SF device two identical solutions that were either the pH-7.50 “pH calibration solution for dye” listed in (Table 1), or variants thereof obtained by titrating the pH as outlined in a footnote to (Table 1). For each pH value X, we computed (I460/I415)pHx as described in the previous section. We fitted the following theoretical titration curve to our experimental data:
[formula] which normalizes the data to the value observed at pH 7.5, and forces the function to have a value of unity at this pH.
We used an iterative non-linear least-squares method to determine b and pK. […] The best-fit values were 7.11±0.01 (SD) for the pK, and 1.39±0.01(SD) for b. We used these values of pK and b and the values for ratio of (I460/I415) in each experiment to calculate pH.

SMILES	extracellular CA enzyme activity with ACZ ([1]; 10 μM ACZ in syringe opposite to RBCs)	krx (rate constant of HCO3- + H+ -> CO2 + H2O reaction) in presence of ACZ ([1]; 10 μM ACZ in syringe opposite to RBCs (5%-100% hemolysis of RBCs), 10° C., reduced to the uncatalyzed value) [s-^1]	time for pHo to reach ~7.5 with ACZ ([1]; ACZ in solution opposite to RBCs (FIG. 4D)) [s]	krx (rate constant of HCO3- + H+ -> CO2 + H2O reaction) in presence of ACZ (hemolysate released CA; 10 μM ACZ in syringe opposite to hemolysate (5%-100% relative amount), 10° C., reduced to the uncatalyzed value) [s-^1]	time for pHo to reach ~7.5 with ACZ (hemolysate released CA; ACZ in solution opposite to hemolysate (FIG. 3D)) [s]	PKa in previous study [2]	pK (best-fit value) [3]
CC(=O)Nc1nnc(S(N)(=O)=O)s1 [ACZ, acetazolamide]	totally blocked	~0.02	~200	~0.02	~200	–	–
O=S(=O)([O-])c1cc(O)c2ccc3c(S(=O)(=O)[O-])cc(S(=O)(=O)[O-])c4ccc1c2c34.[Na+].[Na+].[Na+] [pyranine]	–	–	–	–	–	around 7.3	7.11±0.01
